Laboratory results taken from ChEMBL document CHEMBL1201862, “PubChem BioAssay data set” (2004).
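Exposure lasted 48 hours, with cells grown in 96-well plates and compounds tested at five concentrations. GI50 = concentration required for 50% inhibition of growth.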 Activity calls are given as the source filed them. Rule as the data show it: active = GI50 up to about 1.1 µM and inactive = higher.

Assays:
Experiment in all cases: NCI anticancer screen, dose series, 48 h
786-0 = tested on: 786-0
COLO 205 = tested on: COLO 205
HCC 2998 = tested on: HCC 2998
HCT-15 = tested on: HCT-15
HL-60 = tested on: HL-60
HT-29 = tested on: HT-29
IGROV-1 = tested on: IGROV-1
LOX IMVI = tested on: LOX IMVI
MCF7 = tested on: MCF7
Malme-3M = tested on: Malme-3M
NCI-H226 = tested on: NCI-H226
NCI/ADR-RES = tested on: NCI/ADR-RES
SF-295 = tested on: SF-295
SK-MEL-5 = tested on: SK-MEL-5
SK-OV-3 = tested on: SK-OV-3
SN12C = tested on: SN12C
SNB-75 = tested on: SNB-75
TK-10 = tested on: TK-10
U-251 = tested on: U-251
UACC-62 = tested on: UACC-62

SMILES: COC(=O)C1(OC(=O)Sc2ccccc2)CCN(C)CC1
- GI50 (786-0): 19 µM (inactive)
- GI50 (COLO 205): 9.82 µM (inactive)
- GI50 (HCC 2998): 28.6 µM (inactive)
- GI50 (HCT-15): 34.9 µM
- GI50 (HL-60): 5.96 µM (inactive)
- GI50 (HT-29): 21.4 µM (inactive)
- GI50 (IGROV-1): 4.75 µM (inactive)
- GI50 (LOX IMVI): 8.07 µM (inactive)
- GI50 (MCF7): > 52 µM (inactive)
- GI50 (Malme-3M): 63.7 µM (inactive)
- GI50 (NCI-H226): 13.6 µM (inactive)
- GI50 (NCI/ADR-RES): 13.1 µM (inactive)
- GI50 (SF-295): 25.2 µM (inactive)
- GI50 (SK-MEL-5): 22.6 µM (inactive)
- GI50 (SK-OV-3): 33.3 µM (inactive)
- GI50 (SN12C): 3.9 µM (inactive)
- GI50 (SNB-75): 16.8 µM (inactive)
- GI50 (TK-10): 41.3 µM (inactive)
- GI50 (U-251): 12.1 µM (inactive)
- GI50 (UACC-62): 21.3 µM (inactive)

SMILES: C/C(=N\NC(=O)c1ccncc1)c1sc(-n2nc(-c3ccccc3)cc2-c2ccccc2)nc1C
- GI50 (786-0): > 31.6 µM (inactive)
- GI50 (COLO 205): > 100 µM (inactive)
- GI50 (HCC 2998): > 31.6 µM (inactive)
- GI50 (HCT-15): > 31.6 µM
- GI50 (HL-60): 21.5 µM (inactive)
- GI50 (HT-29): > 100 µM (inactive)
- GI50 (IGROV-1): > 33.7 µM (inactive)
- GI50 (LOX IMVI): > 80.9 µM (inactive)
- GI50 (MCF7): > 31.6 µM (inactive)
- GI50 (Malme-3M): > 56.2 µM (inactive)
- GI50 (NCI-H226): > 64.1 µM (inactive)
- GI50 (NCI/ADR-RES): > 100 µM (inactive)
- GI50 (SF-295): > 31.6 µM (inactive)
- GI50 (SK-MEL-5): > 31.6 µM (inactive)
- GI50 (SK-OV-3): > 31.6 µM (inactive)
- GI50 (SN12C): > 100 µM (inactive)
- GI50 (SNB-75): > 37.2 µM (inactive)
- GI50 (TK-10): > 31.6 µM (inactive)
- GI50 (U-251): > 31.6 µM (inactive)
- GI50 (UACC-62): > 31.6 µM (inactive)

SMILES: O=c1ccn(C2OC(COC3CCCCO3)C(OC3CCCCO3)C2OC2CCCCO2)c(=O)n1-c1ccccc1 (centres undefined)
- GI50 (786-0): > 100 µM (inactive)
- GI50 (COLO 205): > 100 µM (inactive)
- GI50 (HCC 2998): > 100 µM (inactive)
- GI50 (HCT-15): > 100 µM
- GI50 (HL-60): > 100 µM (inactive)
- GI50 (HT-29): > 100 µM (inactive)
- GI50 (IGROV-1): > 100 µM (inactive)
- GI50 (LOX IMVI): > 100 µM (inactive)
- GI50 (MCF7): > 100 µM (inactive)
- GI50 (Malme-3M): > 100 µM (inactive)
- GI50 (NCI-H226): > 100 µM (inactive)
- GI50 (NCI/ADR-RES): > 100 µM (inactive)
- GI50 (SF-295): > 100 µM (inactive)
- GI50 (SK-MEL-5): > 100 µM (inactive)
- GI50 (SK-OV-3): > 100 µM (inactive)
- GI50 (SN12C): > 100 µM (inactive)
- GI50 (SNB-75): > 100 µM (inactive)
- GI50 (TK-10): > 100 µM (inactive)
- GI50 (U-251): > 100 µM (inactive)

SMILES: N#CC(=S)Nc1ccc(F)cc1
- GI50 (786-0): 53.8 µM (inactive)
- GI50 (COLO 205): 22.4 µM (inactive)
- GI50 (HCC 2998): 45.4 µM (inactive)
- GI50 (HCT-15): 88.7 µM
- GI50 (HL-60): 30.4 µM (inactive)
- GI50 (HT-29): 67.8 µM (inactive)
- GI50 (IGROV-1): 32.1 µM (inactive)
- GI50 (LOX IMVI): 30.8 µM (inactive)
- GI50 (MCF7): 64.7 µM (inactive)
- GI50 (Malme-3M): 50.2 µM (inactive)
- GI50 (NCI-H226): 78.5 µM (inactive)
- GI50 (NCI/ADR-RES): 34.2 µM (inactive)
- GI50 (SF-295): 51.6 µM (inactive)
- GI50 (SK-MEL-5): 17 µM (inactive)
- GI50 (SK-OV-3): > 100 µM (inactive)
- GI50 (SN12C): > 100 µM (inactive)
- GI50 (SNB-75): > 100 µM (inactive)
- GI50 (TK-10): 39.1 µM (inactive)
- GI50 (U-251): 34.4 µM (inactive)
- GI50 (UACC-62): 40.2 µM (inactive)

SMILES: CC(C)(C)OC(=O)NC(CSSCC(NC(=O)OC(C)(C)C)C(=O)O)C(=O)O (centres undefined)
- GI50 (786-0): > 100 µM (inactive)
- GI50 (COLO 205): > 100 µM (inactive)
- GI50 (HCC 2998): > 100 µM (inactive)
- GI50 (HCT-15): > 100 µM
- GI50 (HL-60): > 100 µM (inactive)
- GI50 (HT-29): > 100 µM (inactive)
- GI50 (IGROV-1): > 100 µM (inactive)
- GI50 (LOX IMVI): > 100 µM (inactive)
- GI50 (MCF7): > 100 µM (inactive)
- GI50 (Malme-3M): > 100 µM (inactive)
- GI50 (NCI-H226): > 100 µM (inactive)
- GI50 (NCI/ADR-RES): > 100 µM (inactive)
- GI50 (SF-295): > 100 µM (inactive)
- GI50 (SK-MEL-5): > 100 µM (inactive)
- GI50 (SK-OV-3): > 100 µM (inactive)
- GI50 (SN12C): > 100 µM (inactive)
- GI50 (SNB-75): > 100 µM (inactive)
- GI50 (TK-10): > 100 µM (inactive)
- GI50 (U-251): > 100 µM (inactive)
- GI50 (UACC-62): > 100 µM (inactive)

SMILES: CCOC(=O)/C=C(\C(=O)OCC)n1ccc(=O)n(Cc2cnnn2CCCCOC(C)=O)c1=O
- GI50 (786-0): 3.46 µM (inactive)
- GI50 (COLO 205): 1.3 µM (inactive)
- GI50 (HCC 2998): 18.4 µM (inactive)
- GI50 (HCT-15): 3.73 µM
- GI50 (HL-60): 2.79 µM (inactive)
- GI50 (HT-29): 9.08 µM (inactive)
- GI50 (IGROV-1): 14 µM (inactive)
- GI50 (LOX IMVI): 4.09 µM (inactive)
- GI50 (MCF7): 4.79 µM (inactive)
- GI50 (Malme-3M): 2.06 µM (inactive)
- GI50 (NCI-H226): 17.6 µM (inactive)
- GI50 (NCI/ADR-RES): 17.6 µM (inactive)
- GI50 (SF-295): 27.4 µM (inactive)
- GI50 (SK-MEL-5): 13.5 µM (inactive)
- GI50 (SK-OV-3): 34 µM (inactive)
- GI50 (SN12C): 10.4 µM (inactive)
- GI50 (SNB-75): 14 µM (inactive)
- GI50 (TK-10): 4.54 µM (inactive)
- GI50 (U-251): 27.3 µM (inactive)
- GI50 (UACC-62): 6.14 µM (inactive)

SMILES: Fc1cccc(C2ON=C(c3ccccc3)N2C23CC4CC(CC(C4)C2)C3)c1 (centres undefined)
- GI50 (786-0): > 10 µM (inactive)
- GI50 (COLO 205): > 10 µM (inactive)
- GI50 (HCC 2998): > 10 µM (inactive)
- GI50 (HCT-15): > 10 µM
- GI50 (HL-60): > 10 µM (inactive)
- GI50 (HT-29): > 10 µM (inactive)
- GI50 (IGROV-1): > 10 µM (inactive)
- GI50 (LOX IMVI): > 10 µM (inactive)
- GI50 (MCF7): > 10 µM (inactive)
- GI50 (Malme-3M): > 10 µM (inactive)
- GI50 (NCI-H226): > 10 µM (inactive)
- GI50 (NCI/ADR-RES): > 10 µM (inactive)
- GI50 (SF-295): > 10 µM (inactive)
- GI50 (SK-MEL-5): > 10 µM (inactive)
- GI50 (SK-OV-3): > 10 µM (inactive)
- GI50 (SN12C): > 10 µM (inactive)
- GI50 (SNB-75): > 10 µM (inactive)
- GI50 (TK-10): > 10 µM (inactive)
- GI50 (U-251): > 10 µM (inactive)
- GI50 (UACC-62): > 10 µM (inactive)
